Reference: patent US20130165368A1, “ANTIMICROBIAL COMPOUNDS” (priority 2010, published 2013)
Values after ≈ are worked out from the molar mass of the structure shown. Read-outs that look alike come from different tables or passages of the source.

Assays:
Format in all cases: cell-based
[1] = test system: Staphylococcus aureus (MRSA); experiment: MIC agar dilution, micro-organism 12 (11939); settings: Staphylococcus aureus (MRSA) 11939
Summary of the method: (§1)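 Agar dilution in Isosensitest/CCEY agar with egg yolk and lysed horse blood; compounds as aqueous emulsions (myristyl and lauryl alcohol with 1-methyl-2-pyrrolidone and Tween 20). 1 µL spots of 1/15-diluted 0.5 McFarland suspensions, 37 °C aerobic, read at 22 and 48 h; MIC (mmol/L) is lowest concentration giving <10 colonies.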

Candida albicans = experiment: MIC agar dilution, micro-organism 19 (90028); settings: Candida albicans 90028
Summary of the method: as §1

Candida glabrata = experiment: MIC agar dilution, micro-organism 20 (3943); settings: Candida glabrata 3943
Summary of the method: as §1

[2] = test system: Enterococcus faecium (VRE) MB 305; experiment: MIC agar dilution, VRE strain 25
Protocol: (§2) Molar equivalent concentrations were used to allow comparison between compounds of differing molecular mass. Due to weighing difficulties, any compound in solid form was melted in a water bath prior to dilution. To make ten-times strength concentrations, which takes into account agar dilution, 0.0352 mmol of each compound was weighed into plastic universal bottles and 4 mL of sterile distilled water (SDW) was added. To produce a homogenous emulsion the universals were vortexed; once achieved the emulsions were serial diluted by adding 2 mL to 2 mL of SDW.
(§3) For every 100 mL of Isosensitest agar (IST) (CM0471; Oxoid, Basingstoke, England), 3.1 g of the IST powder was added to 100 mL SDW (as per manufacturer's instructions) and sterilised for 15 minutes at 121° C. Once sterilised, the molten agar was cooled to 50° C. in a water-bath. Subsequently 4.8 g of CCEY powder (BC2160; Bioconnections, Wetherby, England), also known as Brazier's medium, was added to 100 mL SDW for every 100 mL of agar needed. This was then sterilised for 15 minutes at 121° C. Once sterilised the molten agar was cooled to 50° C. in a water-bath and 4 mL of egg-yolk emulsion (S2073; TCS Biosciences Ltd, Buckingham, United Kingdom) and 1 mL of lysed defibrinated horse blood (HB035; TCS Biosciences Ltd, Buckingham, United Kingdom) were also added for every 100 mL needed. Horse blood lysis is achieved by dilution to half concentration with SDW; when fully lysed the mixture will turn dark red in colour.
(§4) 18 mL agar was added to each universal and then poured into sterile Petri dishes. This step creates a 1/10 dilution resulting in agar plates of the required strength. Control plates for each set of strains were created by adding 18 mL of agar to 2 mL of SDW.
(§5) Suspensions of each bacterial species were prepared with a density equal to that of a 0.5 McFarland standard using a densitometer. All suspensions were made using sterile distilled water and fresh 18-20 hour cultures. As a 0.5 McFarland standard contains 1.5×10^8 CFU/mL and the multipoint inoculators applies 1 μL spots of liquid, each bacterial suspension was diluted 1/15 (20 μL suspension to 280 μL sterile distilled water).
(§6) Bacterial suspensions were prepared from fresh 18-24 hour cultures as previously described. 1 μL of each strain was inoculated onto all 100 agar plates containing a different chemical concentration and the 2 control plates. This was done using a multipoint inoculator which inoculates 20 strains per plate. All plates were incubated for 22 hours at 37° C. in aerobic conditions.
(§7) Each plate was examined for bacterial growth after 22 and 48 hours, with each being incubated in between examinations. A positive result was recorded as growth of ≧10 colonies. A negative result was recorded as growth of <10 colonies as this is equivalent to 99.9% inhibition. The lowest concentration of chemical that inhibited growth was recorded as the MIC. The results are recorded in Table IV below, where the numbers are quoted in mmol/L.
(§8) Given the positive performance of the ethoxylates of lauryl alcohol in reducing the MIC for a number of the micro-organisms tested, further MIC testing of Laureth-1 [C12E1] through to Laureth-8 [C12E8] was conducted on each of the following: • 10 strains of vancomycin-resistant enterococci (VRE)—listed in Table V below; and • 20 strains of methicillin-resistant Staphylococcus aureus (MRSA)—listed in Table VI.
(§9) The alkanol, alkanol derivatives, agar plates, and inocula were all prepared in the same way as described above.
(§10) The plates were examined in the same manner as described above and the results are recorded in Table VII below, where the numbers are quoted in mmol/L.

[3] = test system: Enterococcus faecalis (VRE) MB 726; experiment: MIC agar dilution, VRE strain 28
Protocol: as §2, §3, §4, §5, §6, §7, §8, §9, §10

MRSA EMRSA 15 21268/98 = experiment: MIC agar dilution, MRSA strain 40; settings: Staphylococcus aureus
Protocol: as §2, §3, §4, §5, §6, §7, §8, §9, §10

MRSA EMRSA 15 21698/98 = experiment: MIC agar dilution, MRSA strain 41; settings: Staphylococcus aureus
Protocol: as §2, §3, §4, §5, §6, §7, §8, §9, §10

MRSA EMRSA 15 1729/98 = experiment: MIC agar dilution, MRSA strain 42; settings: Staphylococcus aureus
Protocol: as §2, §3, §4, §5, §6, §7, §8, §9, §10

MRSA EMRSA 16 21354/95 = experiment: MIC agar dilution, MRSA strain 44; settings: Staphylococcus aureus
Protocol: as §2, §3, §4, §5, §6, §7, §8, §9, §10

MRSA EMRSA 16 03732/95 = experiment: MIC agar dilution, MRSA strain 45; settings: Staphylococcus aureus
Protocol: as §2, §3, §4, §5, §6, §7, §8, §9, §10

MRSA EMRSA 16 00036/95 = experiment: MIC agar dilution, MRSA strain 46; settings: Staphylococcus aureus
Protocol: as §2, §3, §4, §5, §6, §7, §8, §9, §10

MRSA EMRSA 16 00998/95 = experiment: MIC agar dilution, MRSA strain 47; settings: Staphylococcus aureus
Protocol: as §2, §3, §4, §5, §6, §7, §8, §9, §10

MRSA EMRSA 16 07924/95 = experiment: MIC agar dilution, MRSA strain 49; settings: Staphylococcus aureus
Protocol: as §2, §3, §4, §5, §6, §7, §8, §9, §10

[4] = Staphylococcus aureus, MRSA, 22 h, 22 hrs, read-out: MIC
[5] = Staphylococcus aureus, MRSA, 48 h, 48 hrs, read-out: MIC
[6] = Nakaseomyces glabratus, 22 h, 22 hrs, read-out: MIC
[7] = Nakaseomyces glabratus, 48 h, 48 hrs, read-out: MIC

MIC [1, 4] [µM]	MIC [1, 5] [µM]	MIC (Candida albicans; 22 hrs, read-out: MIC) [µM]	MIC (Candida albicans; 48 hrs, read-out: MIC) [µM]	MIC (Candida glabrata; [6]) [µM]	MIC (Candida glabrata; [7]) [µM]	SMILES	MIC ([2]; 22 hrs) [µM]	MIC ([2]; 48 hrs) [µM]	MIC ([3]; 22 hrs) [µM]	MIC ([3]; 48 hrs) [µM]	MIC (MRSA EMRSA 15 21268/98; 22 hrs) [µM]	MIC (MRSA EMRSA 15 21268/98; 48 hrs) [µM]	MIC (MRSA EMRSA 15 21698/98; 22 hrs) [µM]	MIC (MRSA EMRSA 15 21698/98; 48 hrs) [µM]	MIC (MRSA EMRSA 15 1729/98; 22 hrs) [µM]	MIC (MRSA EMRSA 15 1729/98; 48 hrs) [µM]	MIC (MRSA EMRSA 16 21354/95; 22 hrs) [µM]	MIC (MRSA EMRSA 16 21354/95; 48 hrs) [µM]	MIC (MRSA EMRSA 16 03732/95; 22 hrs) [µM]	MIC (MRSA EMRSA 16 03732/95; 48 hrs) [µM]	also measured
> 880	> 880	> 880	> 880	880 (≈ 213 µg/mL)	> 880	CCCCCCCCCCCCCCCCO [C0, 1-Hexadecanol, reference compound]	–	–	–	–	–	–	–	–	–	–	–	–	–	–	–
–	–	–	–	–	–	CCCCCCCCCCCCCOCCOCCOCCOCCOCCOCCO [C13E6, polyoxyethylene (6) tridecyl alcohol]	–	–	–	–	–	–	–	–	–	–	–	–	–	–	MIC ([1]; 22 hrs): 110 µM (≈ 51.1 µg/mL); MIC ([1]; 48 hrs): 110 µM (≈ 51.1 µg/mL); MIC (Candida albicans; 22 hrs): >880 µM; MIC (Candida albicans; 48 hrs): >880 µM; MIC (Candida glabrata; 22 hrs): >880 µM; MIC (Candida glabrata; 48 hrs): >880 µM
110 (≈ 30.2 µg/mL)	110 (≈ 30.2 µg/mL)	220 (≈ 60.4 µg/mL)	220 (≈ 60.4 µg/mL)	110 (≈ 30.2 µg/mL)	110 (≈ 30.2 µg/mL)	CCCCCCCCCCCCOCCOCCO [L2, Diethylene Glycol Monododecyl Ether]	880 (≈ 242 µg/mL)	880 (≈ 242 µg/mL)	220 (≈ 60.4 µg/mL)	220 (≈ 60.4 µg/mL)	110 (≈ 30.2 µg/mL)	110 (≈ 30.2 µg/mL)	110 (≈ 30.2 µg/mL)	110 (≈ 30.2 µg/mL)	110 (≈ 30.2 µg/mL)	110 (≈ 30.2 µg/mL)	110 (≈ 30.2 µg/mL)	110 (≈ 30.2 µg/mL)	110 (≈ 30.2 µg/mL)	110 (≈ 30.2 µg/mL)	MIC (MRSA EMRSA 16 00036/95; 22 hrs): 110 µM (≈ 30.2 µg/mL); MIC (MRSA EMRSA 16 00036/95; 48 hrs): 110 µM (≈ 30.2 µg/mL); MIC (MRSA EMRSA 16 00998/95; 22 hrs): 110 µM (≈ 30.2 µg/mL); MIC (MRSA EMRSA 16 00998/95; 48 hrs): 110 µM (≈ 30.2 µg/mL); MIC (MRSA EMRSA 16 07924/95; 22 hrs): 110 µM (≈ 30.2 µg/mL); MIC (MRSA EMRSA 16 07924/95; 48 hrs): 110 µM (≈ 30.2 µg/mL)

SMILES	MIC [1, 4] [µM]	MIC [1, 5] [µM]	MIC (Candida albicans; 22 hrs, read-out: MIC) [µM]	MIC (Candida albicans; 48 hrs, read-out: MIC) [µM]	MIC (Candida glabrata; [6]) [µM]	MIC (Candida glabrata; [7]) [µM]	MIC ([2]; 22 hrs) [µM]	MIC ([2]; 48 hrs) [µM]	MIC ([3]; 22 hrs) [µM]	MIC ([3]; 48 hrs) [µM]	MIC (MRSA EMRSA 15 21268/98; 22 hrs) [µM]	MIC (MRSA EMRSA 15 21268/98; 48 hrs) [µM]	MIC (MRSA EMRSA 15 21698/98; 22 hrs) [µM]	MIC (MRSA EMRSA 15 21698/98; 48 hrs) [µM]	MIC (MRSA EMRSA 15 1729/98; 22 hrs) [µM]	MIC (MRSA EMRSA 15 1729/98; 48 hrs) [µM]	MIC (MRSA EMRSA 16 21354/95; 22 hrs) [µM]	MIC (MRSA EMRSA 16 21354/95; 48 hrs) [µM]	MIC (MRSA EMRSA 16 03732/95; 22 hrs) [µM]	MIC (MRSA EMRSA 16 03732/95; 48 hrs) [µM]	also measured
CCCCCCCCCCCCOCCO [L1, Ethylene Glycol Monododecyl Ether]	440 (≈ 101 µg/mL)	440 (≈ 101 µg/mL)	440 (≈ 101 µg/mL)	440 (≈ 101 µg/mL)	220 (≈ 50.7 µg/mL)	220 (≈ 50.7 µg/mL)	440 (≈ 101 µg/mL)	880 (≈ 203 µg/mL)	440 (≈ 101 µg/mL)	440 (≈ 101 µg/mL)	220 (≈ 50.7 µg/mL)	220 (≈ 50.7 µg/mL)	220 (≈ 50.7 µg/mL)	220 (≈ 50.7 µg/mL)	220 (≈ 50.7 µg/mL)	220 (≈ 50.7 µg/mL)	220 (≈ 50.7 µg/mL)	220 (≈ 50.7 µg/mL)	220 (≈ 50.7 µg/mL)	220 (≈ 50.7 µg/mL)	MIC (MRSA EMRSA 16 00036/95; 22 hrs): 220 µM (≈ 50.7 µg/mL); MIC (MRSA EMRSA 16 00036/95; 48 hrs): 220 µM (≈ 50.7 µg/mL); MIC (MRSA EMRSA 16 00998/95; 22 hrs): 220 µM (≈ 50.7 µg/mL); MIC (MRSA EMRSA 16 00998/95; 48 hrs): 220 µM (≈ 50.7 µg/mL); MIC (MRSA EMRSA 16 07924/95; 22 hrs): 220 µM (≈ 50.7 µg/mL); MIC (MRSA EMRSA 16 07924/95; 48 hrs): 220 µM (≈ 50.7 µg/mL)
